SMILES strings stand for the structures. Structures can show the parent of a compound that is named as a salt.

For one test, the system named is HIV. Put plainly: MT4 assay: antiviral HIV activity (cell protection, cell titer glo readout at 96 hours). The test is classed as cell-based. As to conditions: Human immunodeficiency virus 1, MT4, 96 h, MT4 cells, cell titer glo readout at 96 hours, 10 point dose response; read-out: HIV MT4 Assay IC50. In short, it runs like this:
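MT-4 cells infected with HIV, with inhibition readout by CellTiter-Glo luminescence at 96 h relative to no-compound control. Cytotoxicity measured in parallel under the same conditions. IC50 from a 10-point, 3-4-fold dilution series spanning >1000-fold, fitted with a four-parameter logistic equation.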
(In general: Cellular ATP, detected with luciferase, serves as a proxy for viable cell number.)
On to `Cc1nc2c(cc(-c3cnn(CC4CN(C5CCOCC5)C4)c3)n2C)c(-c2cc(F)c3c(c2C)CCCO3)c1[C@H](OC(C)(C)C)C(=O)O` (atropisomer, axis not shown) [Example 130], for which the IC50 amounted to 291 nM.
As for `Cc1nc2c(cc(-c3ccc(F)cc3)n2C)c(-c2cc(F)c3c(c2C)CCCO3)c1[C@H](OC(C)(C)C)C(=O)O` (atropisomer, axis not shown) [Example 131], the IC50 worked out at 89.5 nM.
The same measure, in the same setting: to `CCCn1cc(-c2cc3c(-c4cc(F)c5c(c4C)CCCO5)c([C@H](OC(C)(C)C)C(=O)O)c(C)nc3n2C)cn1` (atropisomer, axis not shown) [Example 132] belongs 32.9 nM; to `Cc1nc2c(cc(-c3cnn(C4CCN(C5COC5)CC4)c3)n2C)c(-c2cc(F)c3c(c2C)CCCO3)c1[C@H](OC(C)(C)C)C(=O)O` (atropisomer, axis not shown) [Example 133], 104 nM; to `Cc1nc2c(cc(-c3ccc4c(cnn4C)c3)n2C)c(-c2cc(F)c3c(c2C)CCCO3)c1[C@H](OC(C)(C)C)C(=O)O` (atropisomer, axis not shown) [Example 134], 39.2 nM.
Same read-out and setting: under `Cc1nc2c(cc(-c3ccc4c(c3)N(C)CCO4)n2C)c(-c2cc(F)c3c(c2C)CCCO3)c1[C@H](OC(C)(C)C)C(=O)O` (atropisomer, axis not shown) [Example 135] stands 126 nM; under `Cc1nc2c(cc(-c3ccc4nccn4c3)n2C)c(-c2cc(F)c3c(c2C)CCCO3)c1[C@H](OC(C)(C)C)C(=O)O` (atropisomer, axis not shown) [Example 136], 42.5 nM; under `Cc1nc2c(cc(-c3ccc4c(c3)CCN(C)C4=O)n2C)c(-c2cc(F)c3c(c2C)CCCO3)c1[C@H](OC(C)(C)C)C(=O)O` (atropisomer, axis not shown) [Example 137], 43.8 nM.
Same read-out and setting: to `Cc1nc2c(cc(-c3ccnc(C(=O)N4CCN(S(C)(=O)=O)CC4)c3)n2C)c(-c2cc(F)c3c(c2C)CCCO3)c1[C@H](OC(C)(C)C)C(=O)O` (atropisomer, axis not shown) [Example 146] belongs 487 nM; to `Cc1nc2c(cc(-c3ccnc(C(=O)Nc4cnn(C)c4)c3)n2C)c(-c2cc(F)c3c(c2C)CCCO3)c1[C@H](OC(C)(C)C)C(=O)O` (atropisomer, axis not shown) [Example 147], 45.3 nM.
With `Cc1nc2c(cc(-c3ccnc(C(=O)Nc4ccnn4C)c3)n2C)c(-c2cc(F)c3c(c2C)CCCO3)c1[C@H](OC(C)(C)C)C(=O)O` (atropisomer, axis not shown) [Example 148], the IC50 was 40.1 nM.
With `Cc1nc2c(cc(-c3ccnc(C(=O)NCCN4CCCC4=O)c3)n2C)c(-c2cc(F)c3c(c2C)CCCO3)c1[C@H](OC(C)(C)C)C(=O)O` (atropisomer, axis not shown) [Example 149], the IC50 amounted to 219 nM.
For `Cc1nc2c(cc(-c3ccnc(C(=O)NCc4c[nH]cn4)c3)n2C)c(-c2cc(F)c3c(c2C)CCCO3)c1[C@H](OC(C)(C)C)C(=O)O` (atropisomer, axis not shown) [Example 150], the IC50 turned out to be 9360 nM.
As for `Cc1nc2c(cc(-c3ccnc(C(=O)NCc4ccc(F)cc4)c3)n2C)c(-c2cc(F)c3c(c2C)CCCO3)c1[C@H](OC(C)(C)C)C(=O)O` (atropisomer, axis not shown) [Example 151], the IC50 was determined as 43.6 nM.
With `Cc1nc2c(cc(-c3ccnc(C(=O)NC4CCCCC4)c3)n2C)c(-c2cc(F)c3c(c2C)CCCO3)c1[C@H](OC(C)(C)C)C(=O)O` (atropisomer, axis not shown) [Example 152], the IC50 was 72.4 nM.
On the same count and under the same terms, under `Cc1nc2c(cc(-c3ccnc(C(=O)Nc4ccn(C)n4)c3)n2C)c(-c2cc(F)c3c(c2C)CCCO3)c1[C@H](OC(C)(C)C)C(=O)O` (atropisomer, axis not shown) [Example 153] stands 44 nM; under `Cc1nc2c(cc(-c3ccnc(C#CC(C)(C)N)c3)n2C)c(-c2cc(F)c3c(c2C)CCCO3)c1[C@H](OC(C)(C)C)C(=O)O` (atropisomer, axis not shown) [Example 155], 81.9 nM; under `Cc1nc2c(cc(-c3ccnc(C#CC4(N)CCCCC4)c3)n2C)c(-c2cc(F)c3c(c2C)CCCO3)c1[C@H](OC(C)(C)C)C(=O)O` (atropisomer, axis not shown) [Example 156], 39.8 nM.
On the same count and under the same terms, under `Cc1nc2c(cc(-c3ccnc(C#CCN4CCCC4)c3)n2C)c(-c2cc(F)c3c(c2C)CCCO3)c1[C@H](OC(C)(C)C)C(=O)O` (atropisomer, axis not shown) [Example 157] stands 30 nM.
On the same count and under the same terms, to `Cc1nc2c(cc(-c3ccnc(C#CCN4CCOCC4)c3)n2C)c(-c2cc(F)c3c(c2C)CCCO3)c1[C@H](OC(C)(C)C)C(=O)O` (atropisomer, axis not shown) [Example 158] belongs 45 nM; to `Cc1nc2c(cc(-c3ccnc(C#CC4(O)CCCCC4)c3)n2C)c(-c2cc(F)c3c(c2C)CCCO3)c1[C@H](OC(C)(C)C)C(=O)O` (atropisomer, axis not shown) [Example 159], 27.9 nM; to `Cc1nc2c(cc(-c3ccnc(C#CCN4CCN(C)CC4)c3)n2C)c(-c2cc(F)c3c(c2C)CCCO3)c1[C@H](OC(C)(C)C)C(=O)O` (atropisomer, axis not shown) [Example 160], 150 nM.
In the case of `Cc1nc2c(cc(-c3ccnc(-c4ccc5c(cnn5C)c4)c3)n2C)c(-c2ccc3c(c2C)CCCO3)c1[C@H](OC(C)(C)C)C(=O)O` (atropisomer, axis not shown; (M)) [Example 1, (2S)(M)-2-(tert-butoxy)-2-(1,6-dimethyl-2-(2-(1-methyl-1H-indazol-5-yl)pyridin-4-yl)-4-(5-methylchroman-6-yl)-1H-pyrrolo[2,3-b]pyridin-5-yl)acetic acid], the IC50 came to 1.7 nM.
Still for that read-out and setting: to `Cc1nc2c(cc(-c3nc(N4CCN(C5CCOCC5)CC4)no3)n2C)c(-c2cc(F)c3c(c2C)CCCO3)c1[C@H](OC(C)(C)C)C(=O)O` (atropisomer, axis not shown; (M)) [Example 27, (2S)(M)-2-(tert-butoxy)-2-(4-(8-fluoro-5-methylchroman-6-yl)-1,6-dimethyl-2-(3-(4-(tetrahydro-2H-pyran-4-yl)piperazin-1-yl)-1,2,4-oxadiazol-5-yl)-1H-pyrrolo[2,3-b]pyridin-5-yl)acetic acid] belongs 4.6 nM.
On the same count and under the same terms, to `Cc1nc2c(cc(-c3nnc(-c4ccc5c(cnn5C)c4)o3)n2C)c(-c2cc(F)c3c(c2C)CCCO3)c1[C@H](OC(C)(C)C)C(=O)O` (atropisomer, axis not shown; (M)) [Example 28, (2S)(M)-2-(tert-butoxy)-2-(4-(8-fluoro-5-methylchroman-6-yl)-1,6-dimethyl-2-(5-(1-methyl-1H-indazol-5-yl)-1,3,4-oxadiazol-2-yl)-1H-pyrrolo[2,3-b]pyridin-5-yl)acetic acid] belongs 1.8 nM; to `Cc1nc2c(cc3n2CCCC3)c(-c2cc(F)c3c(c2C)CCCO3)c1[C@H](OC(C)(C)C)C(=O)O` (atropisomer, axis not shown; (M)) [Example 29, (2S)(M)-2-(tert-butoxy)-2-(4-(8-fluoro-5-methylchroman-6-yl)-2-methyl-6,7,8,9-tetrahydropyrido[3,2-b]indolizin-3-yl)acetic acid], 13.8 nM.
As for `Cc1nc2c(cc(-c3ccn(C4CN(C)C4)n3)n2C)c(-c2cc(F)c3c(c2C)CCCO3)c1[C@H](OC(C)(C)C)C(=O)O` (atropisomer, axis not shown; (M)) [Example 129, (2S)(M)-2-(tert-butoxy)-2-(-4-(8-fluoro-5-methylchroman-6-yl)-1,6-dimethyl-2-(1-(1-methylazetidin-3-yl)-1H-pyrazol-3-yl)-1H-pyrrolo[2,3-b]pyridin-5-yl)acetic acid], the IC50 was 45.2 nM.
With `Cc1nc2c(cc(-c3ccnc(C(=O)N4CCN(c5ccccc5)CC4)c3)n2C)c(-c2cc(F)c3c(c2C)CCCO3)c1[C@H](OC(C)(C)C)C(=O)O` (atropisomer, axis not shown; (M)) [Example 145], the half-inhibitory concentration (IC50) turned out to be 45.3 nM.
Same read-out and setting: under `Cc1nc2c(cc(-c3ccnc(C#Cc4cncn4C)c3)n2C)c(-c2cc(F)c3c(c2C)CCCO3)c1[C@H](OC(C)(C)C)C(=O)O` (atropisomer, axis not shown; (M)) [Example 154, (2S)(M)-2-(tert-butoxy)-2-(-4-(8-fluoro-5-methylchroman-6-yl)-1,6-dimethyl-2-(2-((1-methyl-1H-imidazol-5-yl)ethynyl)pyridin-4-yl)-1H-pyrrolo[2,3-b]pyridin-5-yl)acetic acid] stands 11 nM; under `Cc1nc2c(cc(C(=S)N3CCC(c4ccccc4)CC3)n2C)c(-c2cc(F)c3c(c2C)CCCO3)c1[C@H](OC(C)(C)C)C(=O)O` (atropisomer, axis not shown; (M)) [Example 281, (2S)(M)-2-(tert-butoxy)-2-(-4-(8-fluoro-5-methylchroman-6-yl)-1,6-dimethyl-2-(4-phenylpiperidine-1-carbonothioyl)-1H-pyrrolo[2,3-b]pyridin-5-yl)acetic acid], 38.3 nM.

Staying with this test, now noted: Human immunodeficiency virus 1, MT4, 96 h, read-out: HIV MT4 Assay IC50.
On to `Cc1nc2c(cc(C(=O)N3CCN(C4CCCC4)CC3)n2C)c(-c2cc(F)c3c(c2C)CCCO3)c1[C@H](OC(C)(C)C)C(=O)O` (atropisomer, axis not shown; (M)) [Example 161, (2S)(M)-2-(tert-butoxy)-2-(2-(4-cyclopentylpiperazine-1-carbonyl)-4-(8-fluoro-5-methylchroman-6-yl)-1,6-dimethyl-1H-pyrrolo[2,3-b]pyridin-5-yl)acetic acid ditrifluoroacetic acid salt], for which the IC50 was 37.9 nM.

The same test, now with this note: MT4 cells, cell titer glo readout at 96 hours, 10 point dose response; read-out: HIV MT4 Assay IC50.
For the compound `Cc1nc2c(cc(-c3nc(N4CCN(C5CCOCC5)CC4)ns3)n2C)c(-c2cc(F)c3c(c2C)CCCO3)c1[C@H](OC(C)(C)C)C(=O)O` (atropisomer, axis not shown; (M)) [Example 26, (2S)(M)-2-(tert-butoxy)-2-(4-(8-fluoro-5-methylchroman-6-yl)-1,6-dimethyl-2-(3-(4-(tetrahydro-2H-pyran-4-yl)piperazin-1-yl)-1,2,4-thiadiazol-5-yl)-1H-pyrrolo[2,3-b]pyridin-5-yl)acetic acid], the IC50 was 2.9 nM.

In general, IC50 refers to the midpoint of a concentration-inhibition curve.
